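All cell lines were grown in 96-well plates and treated with compound for 48 hours. TGI: total growth inhibition.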
How the values were obtained:
Assay in all cases: growth of human tumour cells (NCI), 48 h
UACC-62 melanoma = test system: UACC-62 melanoma
ACHN renal = test system: ACHN renal
SNB-19 CNS = test system: SNB-19 CNS
NCI-H522 lung = test system: NCI-H522 lung
RXF 393 renal = test system: RXF 393 renal
COLO 205 colon = test system: COLO 205 colon
UACC-257 melanoma = test system: UACC-257 melanoma
DU-145 prostate = test system: DU-145 prostate
HCT-116 colon = test system: HCT-116 colon
SW-620 colon = test system: SW-620 colon
SF-295 CNS = test system: SF-295 CNS
NCI-H460 lung = test system: NCI-H460 lung
HCC-2998 colon = test system: HCC-2998 colon
MOLT-4 leukemia = test system: MOLT-4 leukemia
LOX IMVI melanoma = test system: LOX IMVI melanoma
NCI-H23 lung = test system: NCI-H23 lung
CCRF-CEM leukemia = test system: CCRF-CEM leukemia
HCT-15 colon = test system: HCT-15 colon
OVCAR-5 ovarian = test system: OVCAR-5 ovarian
NCI-H226 lung = test system: NCI-H226 lung
BT-549 breast = test system: BT-549 breast
MDA-MB-435 = test system: MDA-MB-435
786-0 renal = test system: 786-0 renal
OVCAR-8 ovarian = test system: OVCAR-8 ovarian
A498 renal = test system: A498 renal
SR leukemia = test system: SR leukemia
SK-MEL-2 melanoma = test system: SK-MEL-2 melanoma
OVCAR-4 ovarian = test system: OVCAR-4 ovarian
HOP-62 NSCLC = test system: HOP-62 NSCLC
SK-OV-3 ovarian = test system: SK-OV-3 ovarian
A549 NSCLC = test system: A549 NSCLC
SN12C renal = test system: SN12C renal
TK-10 renal = test system: TK-10 renal
HOP-92 NSCLC = test system: HOP-92 NSCLC
MCF7 breast = test system: MCF7 breast
HL-60(TB) leukemia = test system: HL-60(TB) leukemia
MDA-MB-231 breast = test system: MDA-MB-231 breast
SF-268 CNS = test system: SF-268 CNS
OVCAR-3 ovarian = test system: OVCAR-3 ovarian
HT29 colon = test system: HT29 colon
CAKI-1 renal = test system: CAKI-1 renal
HS 578T breast = test system: HS 578T breast
SF-539 CNS = test system: SF-539 CNS
PC-3 prostate = test system: PC-3 prostate
K-562 leukemia = test system: K-562 leukemia
KM12 colon = test system: KM12 colon
SK-MEL-28 melanoma = test system: SK-MEL-28 melanoma
IGROV1 ovarian = test system: IGROV1 ovarian
RPMI-8226 leukemia = test system: RPMI-8226 leukemia
SK-MEL-5 melanoma = test system: SK-MEL-5 melanoma
SNB-75 CNS = test system: SNB-75 CNS
NCI/ADR-RES ovarian = test system: NCI/ADR-RES ovarian
MALME-3M melanoma = test system: MALME-3M melanoma
EKVX NSCLC = test system: EKVX NSCLC
MDA-N = test system: MDA-N
T-47D breast = test system: T-47D breast
U251 CNS = test system: U251 CNS
M14 melanoma = test system: M14 melanoma
DLD-1 colon = test system: DLD-1 colon
DMS 114 small cell lung = test system: DMS 114 small cell lung
UO-31 renal = test system: UO-31 renal
LXFL 529 NSCLC = test system: LXFL 529 NSCLC
SNB-78 CNS = test system: SNB-78 CNS
M19-MEL melanoma = test system: M19-MEL melanoma
KM20L2 colon = test system: KM20L2 colon

## O=[N+]([O-])c1ccc2c(c1)nc(Cc1ccc(Cl)cc1)n2C[C@@H]1CCCN2CCCCC12 (stereo partly specified)
UACC-62 melanoma
  TGI: 28.7 µM
ACHN renal
  TGI: 29 µM
SNB-19 CNS
  TGI: 50.5 µM
NCI-H522 lung
  TGI: 27.4 µM
RXF 393 renal
  TGI: 25.3 µM
COLO 205 colon
  TGI: 29.2 µM
UACC-257 melanoma
  TGI: 31.4 µM
DU-145 prostate
  TGI: 38.1 µM
HCT-116 colon
  TGI: 23.3 µM
SW-620 colon
  TGI: > 59 µM
SF-295 CNS
  TGI: 29.3 µM
NCI-H460 lung
  TGI: 31.2 µM
HCC-2998 colon
  TGI: 18.8 µM
MOLT-4 leukemia
  TGI: > 44.8 µM
LOX IMVI melanoma
  TGI: 28.7 µM
NCI-H23 lung
  TGI: 34.3 µM
CCRF-CEM leukemia
  TGI: > 44.5 µM
HCT-15 colon
  TGI: 37.8 µM
OVCAR-5 ovarian
  TGI: 35.3 µM
NCI-H226 lung
  TGI: 38.3 µM
BT-549 breast
  TGI: 27.1 µM
MDA-MB-435
  TGI: 28.3 µM
786-0 renal
  TGI: 24.5 µM
OVCAR-8 ovarian
  TGI: 30.4 µM
A498 renal
  TGI: 21.7 µM
SR leukemia
  TGI: > 100 µM
SK-MEL-2 melanoma
  TGI: 30.7 µM
OVCAR-4 ovarian
  TGI: > 44 µM
HOP-62 NSCLC
  TGI: 48.9 µM
SK-OV-3 ovarian
  TGI: 43.5 µM
A549 NSCLC
  TGI: 42.1 µM
SN12C renal
  TGI: 27.6 µM
TK-10 renal
  TGI: 39.9 µM
HOP-92 NSCLC
  TGI: 25.4 µM
MCF7 breast
  TGI: 22.5 µM
HL-60(TB) leukemia
  TGI: 66.1 µM
MDA-MB-231 breast
  TGI: 32.6 µM
SF-268 CNS
  TGI: 6.27 µM
OVCAR-3 ovarian
  TGI: 30.8 µM
HT29 colon
  TGI: 28.8 µM
CAKI-1 renal
  TGI: 31.7 µM
HS 578T breast
  TGI: 43.3 µM
SF-539 CNS
  TGI: 35.1 µM
PC-3 prostate
  TGI: > 51.7 µM
K-562 leukemia
  TGI: > 54.1 µM
KM12 colon
  TGI: 27.9 µM
SK-MEL-28 melanoma
  TGI: 30.1 µM
IGROV1 ovarian
  TGI: 26.7 µM
RPMI-8226 leukemia
  TGI: > 100 µM
SK-MEL-5 melanoma
  TGI: 29.5 µM
SNB-75 CNS
  TGI: 28.3 µM
NCI/ADR-RES ovarian
  TGI: 30.2 µM
MALME-3M melanoma
  TGI: 26.2 µM
EKVX NSCLC
  TGI: > 41.2 µM
MDA-N
  TGI: 25.9 µM
T-47D breast
  TGI: 36.6 µM
U251 CNS
  TGI: 45.5 µM
M14 melanoma
  TGI: 25.9 µM

## CC1C=C[C@H](Sc2ccccc2)CC[C@@]1(C)O (stereo partly specified)
UACC-62 melanoma
  TGI: > 100 µM
ACHN renal
  TGI: > 100 µM
SNB-19 CNS
  TGI: > 100 µM
DLD-1 colon
  TGI: > 100 µM
RXF 393 renal
  TGI: > 100 µM
COLO 205 colon
  TGI: > 100 µM
UACC-257 melanoma
  TGI: > 100 µM
HCT-116 colon
  TGI: > 100 µM
SW-620 colon
  TGI: > 100 µM
DMS 114 small cell lung
  TGI: > 100 µM
NCI-H460 lung
  TGI: > 100 µM
HCC-2998 colon
  TGI: > 100 µM
MOLT-4 leukemia
  TGI: > 100 µM
LOX IMVI melanoma
  TGI: > 100 µM
NCI-H23 lung
  TGI: > 100 µM
CCRF-CEM leukemia
  TGI: > 100 µM
HCT-15 colon
  TGI: > 100 µM
OVCAR-5 ovarian
  TGI: > 100 µM
NCI-H226 lung
  TGI: > 100 µM
786-0 renal
  TGI: > 100 µM
OVCAR-8 ovarian
  TGI: > 100 µM
UO-31 renal
  TGI: > 100 µM
A498 renal
  TGI: > 100 µM
SK-MEL-2 melanoma
  TGI: > 100 µM
LXFL 529 NSCLC
  TGI: > 100 µM
HOP-62 NSCLC
  TGI: > 100 µM
SK-OV-3 ovarian
  TGI: > 100 µM
A549 NSCLC
  TGI: > 100 µM
SN12C renal
  TGI: > 100 µM
TK-10 renal
  TGI: > 100 µM
HOP-92 NSCLC
  TGI: > 100 µM
HL-60(TB) leukemia
  TGI: > 100 µM
SNB-78 CNS
  TGI: > 100 µM
HT29 colon
  TGI: > 100 µM
CAKI-1 renal
  TGI: > 100 µM
SF-539 CNS
  TGI: > 100 µM
K-562 leukemia
  TGI: > 100 µM
SK-MEL-28 melanoma
  TGI: > 100 µM
M19-MEL melanoma
  TGI: > 100 µM
IGROV1 ovarian
  TGI: > 100 µM
RPMI-8226 leukemia
  TGI: > 100 µM
SK-MEL-5 melanoma
  TGI: > 100 µM
SNB-75 CNS
  TGI: > 100 µM
MALME-3M melanoma
  TGI: > 100 µM
EKVX NSCLC
  TGI: > 100 µM
KM20L2 colon
  TGI: > 100 µM
U251 CNS
  TGI: > 100 µM
M14 melanoma
  TGI: > 100 µM

From PubChem BioAssay (NCI)
